In ChEMBL document CHEMBL5725283, “2-pyridinecarboxamide derivatives, compositions containing such compounds, and methods of treatment” (2016):

Assay: Glucokinase Activity Assay: Recombinant human liver glucokinase was expressed as a FLAG fusion protein in E. coli, and purified on ANTIFLAG M2 AFFINITY GEL (Sigma). The assay was carried out at 30° C. in a 96-well plate. In the plate was distributed 69 μl each of assay buffer (25 mM Hepes Buffer: pH=7.2, 2 mM MgCl2, 1 mM ATP, 0.5 mM TNAD, 1 mM dithiothreitol), to which was added 1 μl of a DMSO solution of the compound or DMSO as control. Then, 20 μl of pre-ice-cooled enzyme mixture (FLAG-GK, 20 U/ml G6PDH) was distributed thereto, to which was added 10 μl of 25 mM glucose as substrate to initiate the reaction (final glucose concentration=2.5 mM). After starting the reaction, the absorbance at 405 nm was measured every 30 seconds for 10 minutes to evaluate the compound based on the initial increase for 5 minutes. FLAG-GK was added so that the increase of absorbance after 5 minutes fell between 0.05 to 0.1 in the presence of 1% DMSO.

EC50 [nM]	SMILES
49.3	CCOC(=O)Cc1csc(NC(=O)c2nc(Sc3nncn3C)ccc2Sc2ccc(F)cc2)n1
137	Cn1cnnc1Sc1ccc(Sc2ccc(F)cc2)c(C(=O)Nc2nc(CC(=O)O)cs2)n1
13.4	CCOC(=O)CSc1cnc(NC(=O)c2nc(Sc3nncn3C)ccc2Sc2ccc(F)cc2)s1
